Here are results for 20 compounds from BindingDB's records for doi:10.1111/cbdd.12867 (Jishou University, 2017).

Sequence of Alpha-glucosidase MAL32 (P38158 whole entry): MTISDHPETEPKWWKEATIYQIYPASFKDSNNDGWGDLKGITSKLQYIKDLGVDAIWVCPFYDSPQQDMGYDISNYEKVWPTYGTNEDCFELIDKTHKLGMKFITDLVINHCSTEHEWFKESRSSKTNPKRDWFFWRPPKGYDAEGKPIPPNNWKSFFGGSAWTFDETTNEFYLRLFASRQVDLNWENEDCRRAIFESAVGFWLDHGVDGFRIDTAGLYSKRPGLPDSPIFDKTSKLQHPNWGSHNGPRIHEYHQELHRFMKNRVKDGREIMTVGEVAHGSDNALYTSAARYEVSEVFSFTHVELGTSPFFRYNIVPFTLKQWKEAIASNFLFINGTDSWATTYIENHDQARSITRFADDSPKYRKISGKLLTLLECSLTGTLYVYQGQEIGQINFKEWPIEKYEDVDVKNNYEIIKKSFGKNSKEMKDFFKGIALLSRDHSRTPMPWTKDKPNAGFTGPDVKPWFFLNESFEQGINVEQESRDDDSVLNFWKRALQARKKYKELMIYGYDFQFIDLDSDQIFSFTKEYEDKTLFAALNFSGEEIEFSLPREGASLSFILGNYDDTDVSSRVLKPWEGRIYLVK

The experiment has as its target Alpha-glucosidase MAL32 (Saccharomyces cerevisiae (strain ATCC 204508 / S288c), UniProt P38158). Nature of the experiment: In Vitro α-Glucosidase Inhibitory Assay. The note with it: pH 6.8. How it is done:
The test compounds were dissolved in DMSO to prepare the required distributing concentration. α-Glucosidase inhibitory activity was assayed using 0.1 m phosphate buffer (pH 6.8) at 37°C. The enzyme (0.1 U/ml) in phosphate-buffered saline was incubated with various concentrations of test compounds at 37°C for 15 min. Then, 1.25 mm p-nitrophenyl α-D-glucopyranoside was added to the mixture as a substrate.After further incubation at 37°C for 30 min, the absorbance was measured spectrophotometrically at 405 nm. The sample solution was replaced by DMSO as a control. Acarbose was used as a positive control. All experiments were carried out in triplicates.
In the case of `O=C(COc1ccc2ccc(=O)oc2c1)N/N=C1\C(=O)Nc2ccccc21` [(Z)-2-((2-oxo-2H-chromen-7-yl)oxy)-N'-(2-oxoindolin-3-ylidene)acetohydrazide (5a)], the IC50 – broadly, the midpoint of a concentration-inhibition curve – was 187 µM.

For the compound `O=C(COc1ccc2ccc(=O)oc2c1)N/N=C1\C(=O)N(Cc2ccccc2Cl)c2ccccc21` [(Z)-N'-(1-(2-chlorobenzyl)-2-oxoindolin-3-ylidene)-2-((2-oxo-2H-chromen-7-yl)oxy)acetohydrazide (5l)], the IC50 came out at 7.31 µM.

Regarding `O=C(COc1ccc2ccc(=O)oc2c1)N/N=C1\C(=O)N(Cc2ccccc2F)c2ccccc21` [(Z)-N'-(1-(2-fluorobenzyl)-2-oxoindolin-3-ylidene)-2-((2-oxo-2H-chromen-7-yl)oxy)acetohydrazide (5j)], the midpoint of inhibition, the IC50, lay at 7.37 µM.

Compound `Cc1ccc2c(c1)/C(=N/NC(=O)COc1ccc3ccc(=O)oc3c1)C(=O)N2Cc1ccccc1F` [(Z)-N'-(1-(2-fluorobenzyl)-5-methyl-2-oxoindolin-3-ylidene)-2-((2-oxo-2H-chromen-7-yl)oxy)acetohydrazide (5n)] registered a concentration for half-maximal inhibition (IC50) of 66.8 µM.

`O=C(COc1ccc2ccc(=O)oc2c1)N/N=C1\C(=O)N(Cc2cccc(F)c2)c2ccccc21` [(Z)-N'-(1-(3-fluorobenzyl)-2-oxoindolin-3-ylidene)-2-((2-oxo-2H-chromen-7-yl)oxy)acetohydrazide (5k)] had an IC50 of 9.33 µM.

`Cc1ccc2c(c1)/C(=N/NC(=O)COc1ccc3ccc(=O)oc3c1)C(=O)N2Cc1cccc(F)c1` [(Z)-N'-(1-(3-fluorobenzyl)-5-methyl-2-oxoindolin-3-ylidene)-2-((2-oxo-2H-chromen-7-yl)oxy)acetohydrazide (5o)] came in with an IC50 of 77.8 µM.

The compound `O=C(COc1ccc2ccc(=O)oc2c1)N/N=C1\C(=O)N(Cc2ccc(Br)cc2)c2ccccc21` [(Z)-N'-(1-(4-bromobenzyl)-2-oxoindolin-3-ylidene)-2-((2-oxo-2H-chromen-7-yl)oxy)acetohydrazide (5m)] displayed an IC50 of 4.07 µM.

`O=C(COc1ccc2ccc(=O)oc2c1)N/N=C1\C(=O)N(Cc2ccccc2)c2ccccc21` [(Z)-N'-(1-benzyl-2-oxoindolin-3-ylidene)-2-((2-oxo-2H-chromen-7-yl)oxy)acetohydrazide (5i)] had an IC50 of 14.1 µM.

As to `O=C(COc1ccc2ccc(=O)oc2c1)N/N=C1\C(=O)N(Cc2ccccc2)c2ccc(Br)cc21` [(Z)-N'-(1-benzyl-5-bromo-2-oxoindolin-3-ylidene)-2-((2-oxo-2H-chromen-7-yl)oxy)acetohydrazide (5r)], 4.48 µM corresponded to half-maximal inhibition (IC50).

As to `CN1C(=O)/C(=N\NC(=O)COc2ccc3ccc(=O)oc3c2)c2ccccc21` [(Z)-N'-(1-methyl-2-oxoindolin-3-ylidene)-2-((2-oxo-2H-chromen-7-yl)oxy)acetohydrazide (5h)], half-maximal inhibition (IC50) required 269 µM.

Compound `Cc1cc(C)c2c(c1)/C(=N/NC(=O)COc1ccc3ccc(=O)oc3c1)C(=O)N2` [(Z)-N'-(5,7-dimethyl-2-oxoindolin-3-ylidene)-2-((2-oxo-2H-chromen-7-yl)oxy)acetohydrazide (5c)] showed an IC50 of 197 µM.

With `O=C(COc1ccc2ccc(=O)oc2c1)N/N=C1\C(=O)N(Cc2ccccc2Cl)c2ccc(Br)cc21` [(Z)-N'-(5-bromo-1-(2-chlorobenzyl)-2-oxoindolin-3-ylidene)-2-((2-oxo-2H-chromen-7-yl)oxy)acetohydrazide (5s)], the IC50 turned out to be 2.85 µM.

`O=C(COc1ccc2ccc(=O)oc2c1)N/N=C1\C(=O)N(Cc2ccc(Br)cc2)c2ccc(Br)cc21` [(Z)-N'-(5-bromo-1-(4-bromobenzyl)-2-oxoindolin-3-ylidene)-2-((2-oxo-2H-chromen-7-yl)oxy)acetohydrazide (5t)] registered an IC50 of 3.98 µM.

In the case of `O=C(COc1ccc2ccc(=O)oc2c1)N/N=C1\C(=O)Nc2ccc(Br)cc21` [(Z)-N'-(5-bromo-2-oxoindolin-3-ylidene)-2-((2-oxo-2H-chromen-7-yl)oxy)acetohydrazide (5f)], the IC50 is 14.2 µM.

For the compound `O=C(COc1ccc2ccc(=O)oc2c1)N/N=C1\C(=O)N(Cc2ccccc2F)c2ccc(Cl)cc21` [(Z)-N'-(5-chloro-1-(2-fluorobenzyl)-2-oxoindolin-3-ylidene)-2-((2-oxo-2H-chromen-7-yl)oxy)acetohydrazide (5p)], it took 2.56 µM to reach half-maximal inhibition (IC50).

`O=C(COc1ccc2ccc(=O)oc2c1)N/N=C1\C(=O)N(Cc2cccc(F)c2)c2ccc(Cl)cc21` [(Z)-N'-(5-chloro-1-(3-fluorobenzyl)-2-oxoindolin-3-ylidene)-2-((2-oxo-2H-chromen-7-yl)oxy)acetohydrazide (5q)] displayed an IC50 of 2.88 µM.

In turn, `O=C(COc1ccc2ccc(=O)oc2c1)N/N=C1\C(=O)Nc2ccc(Cl)cc21` [(Z)-N'-(5-chloro-2-oxoindolin-3-ylidene)-2-((2-oxo-2H-chromen-7-yl)oxy)acetohydrazide (5e)] had an IC50 of 153 µM.

For the compound `O=C(COc1ccc2ccc(=O)oc2c1)N/N=C1\C(=O)Nc2ccc(F)cc21` [(Z)-N'-(5-fluoro-2-oxoindolin-3-ylidene)-2-((2-oxo-2H-chromen-7-yl)oxy)acetohydrazide (5d)], half-maximal inhibition (IC50) was put at 12 µM.

The compound `Cc1ccc2c(c1)/C(=N/NC(=O)COc1ccc3ccc(=O)oc3c1)C(=O)N2` [(Z)-N'-(5-methyl-2-oxoindolin-3-ylidene)-2-((2-oxo-2H-chromen-7-yl)oxy)acetohydrazide (5b)] registered an IC50 of 114 µM.

For `O=C(COc1ccc2ccc(=O)oc2c1)N/N=C1\C(=O)Nc2ccc([N+](=O)[O-])cc21` [(Z)-N'-(5-nitro-2-oxoindolin-3-ylidene)-2-((2-oxo-2H-chromen-7-yl)oxy)acetohydrazide (5g)], the IC50 was found to be 9.47 µM.
